For test [1], the system named is CFPAC-1. The test can be described thus: In vitro drug sensitivity of pre-existing human pancreatic cancer cell line (surviving cell number, IC50). To be noted: cells surviving 72 hours after addition. The test is classed as cell-based. As to the method: (§1) 8000 cells of human pancreatic cancer cell line were seeded in each well of a 96-well plate, and gemcitabine was added at 24 hours. At 72 hours, the number of viable cells was measured and summarized in a graph. The pancreatic cancer cells of each line were subcutaneously transplanted to NOD/Scid mice. Gemcitabine was intraperitoneally administered at 100 mg/kg from the point in time when the tumor volume reached 100 mm^3. Change in tumor size after the gemcitabine administration was evaluated. The discrepancy between the in vitro anti-cancer drug sensitivity and the in vivo anti-cancer drug sensitivity was confirmed.
(§2) Each pre-existing human pancreatic cancer cell line was inoculated at 5×10^3 cells/well on a 96-well plate, and gemcitabine (10^−12 to 10^−3 M) was added thereto 24 hours later. Nuclear staining was performed 72 hours after the gemcitabine addition. A cell number was measured using IN Cell Analyzer 2000, and an IC50 value was calculated. In order to specifically detect cancer cells within an organoid and calculate a cancer cell number, luciferase gene-transfected cancer cells were established and used in analysis. A cancer organoid was formed from the luciferase gene-transfected cancer cells, and luminescence was measured in the presence of a luminescent substrate (e.g., Luciferase Assay System from Promega Corp.) to evaluate the number of cancer cells present.
(§3) The in vitro drug sensitivity of a pre-existing human pancreatic cancer cell line CFPAC-1, PANC-1, or SW1990 was evaluated. 10^−12 to 10^−3M GEM was added to the cells cultured for 24 hours, and IC50 was calculated from the number of cells surviving 72 hours after the addition. As a result, IC50 of CFPAC-1, PANC-1, or SW1990 was 0.03 μM, 0.7 μM, or 0.2 μM, respectively (upper panels of FIG. 1). On the other hand, the cancer cells were subcutaneously transplanted to NOD/Scid mice, and the xenograft formed was evaluated for its in vivo drug sensitivity by the administration of GEM at 100 mg/kg.

Test [2] relates to PANC-1. Described as above. To be noted: cells surviving 72 hours after addition. The test is classed as cell-based. As to the method: as §1, §2, §3
The subject of test [3] is SW1990. The description is as above. The test is classed as cell-based. To be noted: cells surviving 72 hours after addition. As to the method: as §1, §2, §3
In test [4] the test system is CFPAC-1 xenograft. The test can be described thus: In vivo drug sensitivity of subcutaneous cell line xenograft. The note with it: 100 mg/kg intraperitoneal. More on the design: species or system NOD/Scid mice. The procedure: (§4) 8000 cells of human pancreatic cancer cell line were seeded in each well of a 96-well plate, and gemcitabine was added at 24 hours. At 72 hours, the number of viable cells was measured and summarized in a graph. The pancreatic cancer cells of each line were subcutaneously transplanted to NOD/Scid mice. Gemcitabine was intraperitoneally administered at 100 mg/kg from the point in time when the tumor volume reached 100 mm^3. Change in tumor size after the gemcitabine administration was evaluated.
(§5) Each pre-existing human pancreatic cancer cell line was subcutaneously transplanted at 1×10^6 cells to each of 4- to 10-week old female immunodeficient mice (NOD/Scid mice) to prepare a xenograft. The number of xenografts formed and the volume of each xenograft were measured over time. The volume was calculated according to (minor axis×minor axis×major axis/2) mm^3. The intraperitoneal administration of gemcitabine was started from the point in time when the volume of the xenograft formed exceeded 100 mm^3. The dose concentration of gemcitabine was set to 100 mg/kg, 0 mg/kg, 5 mg/kg, or 10 mg/kg, and gemcitabine was administered once every three days for 3 weeks. Then, the xenograft was resected.
(§6) The in vitro drug sensitivity of a pre-existing human pancreatic cancer cell line CFPAC-1, PANC-1, or SW1990 was evaluated. 10^−12 to 10^−3M GEM was added to the cells cultured for 24 hours, and IC50 was calculated from the number of cells surviving 72 hours after the addition.

Test [5] deals with PANC-1 xenograft. The description is as above. More on the design: species or system NOD/Scid mice. The note with it: 100 mg/kg intraperitoneal. The procedure:
as §4, §5, §6

Test [6] relates to SW1990 xenograft. Described as above. Also on record: species or system NOD/Scid mice. The note with it: 100 mg/kg intraperitoneal. The procedure: as §4, §5, §6
For test [7], the system named is luciferase gene-transfected human pancreatic cancer cell line. The test can be described thus: In vitro drug sensitivity of pancreatic cancer organoid versus plane-cultured cells (luciferase activity). The test is classed as cell-based. The procedure:
In each graph, the ordinate depicts the amount of luciferase activity of the pancreatic cancer cells, and the abscissa depicts an anti-cancer drug (gemcitabine, nab-paclitaxel, or 5-FU) concentration in a medium. […] Among the pancreatic cancer organoids, cancer organoids with rich-stroma show lower sensitivity to anticancer drugs.
as §2
On the other hand, for the large-scale preparation of pancreatic cancer cell organoids having a uniform size, human pancreatic cancer cells, HUVECs, and hMSCs were cocultured using a three-dimensional culture vessel (e.g., ELPLASIA plate from Kuraray Co., Ltd.) to reconstitute a human pancreatic cancer cell line organoid. The pancreatic cancer cells of each line were inoculated at 1×10^4 cells on each well of a 96-well plate which was also inoculated with arbitrary numbers of HUVECs and hMSCs to reconstitute a cancer organoid. The mixing ratio of the cancer cells, HUVECs, and hMSCs was set to 10:0:0, 10:7:1, 10:7:20, 10:7:0, or 10:0:20.
In order to evaluate the drug sensitivity of cancer cells with high accuracy, an approach for quantitatively evaluating only the number of cancer cells within a cancer organoid was studied (FIG. 14). Luciferase gene-transfected cancer cells (CFPAC-1, PANC-1, or CAPAN-2; typically, CFPAC-1) were established, and a cancer organoid was reconstituted. Then, a luminescent substrate was added thereto, and the luminescence intensity of each well was measured using a luminescence plate reader. The luciferase gene-transfected cancer cells were inoculated at various cell numbers onto a multi-well plate, followed by luciferase assay. As a result, the luminescence intensity was confirmed to be proportional to the cell number (FIG. 15). […]
A pancreatic cancer organoid was reconstituted from luciferase gene-transfected pancreatic cancer cells and stromal cells and evaluated for its sensitivity for a pancreatic cancer therapeutic (anti-cancer drug) (FIG. 17). […]

In test [8] the test system is pre-existing human pancreatic cancer cell line (CFPAC-1) organoid-derived xenograft. As to the kind of experiment: Drug sensitivity of human pancreatic cancer organoid-derived xenograft (tumor volume). To be noted: for xenograft regression: e.g. 10 mg/kg. Format: in vivo, NOD/Scid mice. A general note: A xenograft is tissue or cells of one species grown in another, often human tumour cells in immunodeficient mice.
Method: After transplantation of the human pancreatic cancer cells or the human pancreatic cancer cell organoid to immunodeficient mice (NOD/Scid), gemcitabine was administered thereto at 3-day intervals from the point in time when the tumor size exceeded 100 mm3. […] A xenograft was prepared by the subcutaneous transplantation of a human pancreatic cancer cell organoid. Then, the intraperitoneal administration of gemcitabine was started from the point in time when the volume of the xenograft exceeded 100 mm^3. The dose concentration of gemcitabine was set to 0 mg/kg, 5 mg/kg, or 10 mg/kg, and the administration frequency and period were set to once every three days for 3 weeks. The volume of the xenograft was measured at appropriate times. […] The in vivo drug sensitivity of a xenograft reconstituted after transplantation of each organoid was evaluated using a typical pancreatic cancer therapeutic Gemzar (gemcitabine: GEM). A pre-existing human pancreatic cancer cell line organoid prepared by the three-dimensional coculture of a pre-existing human pancreatic cancer cell line, HUVECs, and hMSCs was subcutaneously transplanted to NOD/Scid mice. Then, the administration of GEM (e.g., 10 mg/kg) was started from the point in time when the tumor volume exceeded 100 mm^3. A non-GEM-administration group (0 mg/kg) given only physiological saline was set as a control group. GEM was administered once every three days for 30 days with reference made to a treatment regimen for human pancreatic cancer. A xenograft was recovered at GEM administration day 30 and analyzed histologically.

Test [9] concerns CFPAC-1-derived cancer organoid xenograft. As to the kind of experiment: Tumor size after discontinuation of gemcitabine administration (recurrence). To be noted: 30 mg/kg for 30 days. The test is classed as in vivo. As to the method:
Whether a xenograft reconstituted from a cancer organoid could reproduce the recurrence of pancreatic cancer was studied. […] The right diagrams show a macro photograph of the xenograft in each period. […] After cancer organoid (CFPAC-1-derived) transplantation, gemcitabine was administered (30 mg/kg) for 30 days. Then, the gemcitabine administration was discontinued.

Test [10] concerns human lung cancer cell line (A549 cells). The test can be described thus: In vitro drug sensitivity of human lung cancer cell line organoid (luciferase activity). The test is classed as cell-based. As to the method:
FIG. 29 A lung cancer organoid prepared three-dimensionally using a human lung cancer cell line (A549 cells) expressing luciferase gene and EGFP, as well as HUVECs and hMSCs, and a three-dimensional aggregate composed of only pancreatic cancer cells were evaluated for their in vitro drug sensitivity. The left diagrams show a fluorescence phase-contrast microscope image of the lung cancer organoid. In the graph of the right diagram, the ordinate depicts the amount of luciferase activity of the lung cancer cells, and the abscissa depicts an anti-cancer drug (gemcitabine) concentration in the medium. […] A pre-existing human lung cancer cell line (A549) was introduced from ATCC. In the present study, this cell line was introduced and then used at a passage number of 10 or less in experiments. The pre-existing human lung cancer cell line was transfected with luciferase gene in advance. The human lung cancer cell line, HUVECs, and hMSCs were inoculated onto a three-dimensional culture vessel ([…] plate from Kuraray Co., Ltd.) to reconstitute a human lung cancer cell line organoid. The human lung cancer cell line was inoculated at 3×10^3 cells on each well of a 96-well plate which was also inoculated with arbitrary numbers of HUVECs and hMSCs to reconstitute a cancer organoid. The mixing ratio of the cancer cells, HUVECs, and hMSCs was set to 10:0:0, 10:7:1 (Low hMSC), or 10:7:20 (High hMSC). A lung cancer organoid prepared three-dimensionally using a luciferase gene and EGFP expressing human lung cancer cell line (A549 cells), HUVECs, and hMSCs, and a three-dimensional aggregate composed of only pancreatic cancer cells were evaluated for their in vitro drug sensitivity. The left diagrams show a fluorescence phase-contrast microscope image of the lung cancer organoid. In the graph of the right diagram, the ordinate depicts the amount of luciferase activity of the lung cancer cells, and the abscissa depicts an anti-cancer drug (gemcitabine) concentration in a medium.

The test system of test [11] is primary human pancreatic cancer cells. As to the kind of experiment: In vitro gemcitabine sensitivity of primary human pancreatic cancer organoid (luciferase). The test is classed as cell-based. To be noted: primary pancreatic cancer organoid versus pancreatic cancer cyst; 72 hours.
Method: Pancreatic cancer cells transfected with luciferase gene were used for experiments. […] The three-dimensional coculture method abides by the method for a pancreatic cancer organoid from a pancreatic cancer cell line. […] Luciferase gene-transfected primary human pancreatic cancer cells were established, and a primary pancreatic cancer organoid (pancreatic cancer cells: 2×10^4 cells) was reconstituted in vitro and then cultured for 72 hours in the presence of gemcitabine. Then, a luminescent substrate was added thereto, and the luminescence intensity of each organoid was measured using a luminescence plate reader and analyzed.
Test [12] has as its system primary pancreatic cancer organoid xenograft. The test can be described thus: In vivo drug sensitivity of primary human pancreatic cancer organoid xenograft (tumor size). More on the design: species or system immunodeficient mice. To be noted: primary organoid transplantation group versus cyst transplantation group; once every three days. As to the method:
FIG. 28 A primary cancer organoid was prepared from a primary cancer cell line, and a xenograft was reconstituted in immunodeficient mice in vivo. […] A primary pancreatic cancer organoid (pancreatic cancer cells: 2×10^5 cells) was reconstituted in vitro and then transplanted to immunodeficient mice. […] Gemcitabine was administered thereto once every three days from the point in time when a xenograft reached 100 mm^3.

Test [13] relates to primary pancreatic cancer organoid. The test can be described thus: Drug sensitivity of primary human pancreatic cancer organoid versus patient prognosis (luciferase activity). The note with it: organoid from patient having postoperative recurrence; 72 hours. Format: cell-based. The procedure: Pancreatic cancer cells were separated from a surgically resected preparation of each pancreatic cancer patient and expanded culture was performed by the cyst culture method to obtain primary human pancreatic cancer cells. […] The obtained primary human pancreatic cancer cells were three-dimensionally cocultured with stromal cells (vascular endothelial cells (HUVECs, etc.) and mesenchymal cells (hMSCs, etc.)) to reconstitute a primary pancreatic cancer organoid. Its drug sensitivity was evaluated. The mixing ratio of these cells at the time of primary pancreatic cancer organoid preparation was 10:7:20. The number of specimens was 2. Primary pancreatic cancer cells were separated from a surgically resected specimen of each pancreatic cancer patient (with or without postoperative recurrence), subjected to expanded culture, and then transfected with luciferase gene. Then, these cancer cells were three-dimensionally cocultured with stromal cells to reconstitute a primary pancreatic cancer organoid. The reconstituted human pancreatic cancer organoid was cultured for 72 hours in the presence of gemcitabine at respective concentrations, followed by luciferase activity measurement.

Test [14] deals with EGFP gene-transfected cancer cells (typically, CFPAC-1) organoid. The test can be described thus: Residual cells in cancer organoid cultured with anti-cancer drug. Format: cell-based, human. The note with it: 1 uM, 72 hours. The procedure:
Residual cancer cells expressing GFP and mesenchymal cells expressing αSMA are observed even after anti-cancer drug (gemcitabine) administration. Increase in positive ratio of a cancer stem cell marker Sox9 was confirmed in the residual cancer cells. The properties of cancer cells remaining after anti-cancer drug addition and stromal cells within a cancer organoid were evaluated. EGFP gene-transfected cancer cells (typically, CFPAC-1) were established, and a cancer organoid was reconstituted (the cancer cell:HUVEC:hMSC ratio is, for example, 10:7:10 to 10:7:20). Then, the cancer organoid was cultured for 72 hours in a medium containing 1 uM gemcitabine.

Test [15] concerns pancreatic cancer organoid-derived xenograft. As to the kind of experiment: Immunostaining of residual xenograft tissue after gemcitabine administration. Format: in vivo, immunodeficient mice.
Method: A paraffin section was deparaffinized, then dipped in a citrate buffer, and activated at 121° C. for 20 minutes. After washing with PBS containing 0.05% Tween 20 (PBST) for 5 minutes three times, a buffer for blocking (Dako Japan Co., Ltd.) was added to the section, and blocking reaction was performed at room temperature for 1 hour. Next, a primary antibody solution was added thereto and reacted overnight at 4° C. After the primary antibody (anti-EpCAM antibody, anti-αSMA antibody, anti-cytokeratin 7 (CK7) antibody, anti-CD31 antibody, or anti-laminin antibody) reaction, the section was washed with PBST for 5 minutes three times. A secondary antibody solution diluted with a buffer solution was added thereto and reacted at room temperature for 1 hour in the dark. After the secondary antibody reaction, the section was washed with PBST for 5 minutes three times and mounted on a glass slide using a mounting agent containing a DAPI staining solution (Wako Pure Chemical Industries, Ltd.). A pre-existing human pancreatic cancer cell line was transplanted at 2×10^5 cells to immunodeficient mice. After a xenograft reached 100 mm^3, gemcitabine was administered thereto once every three days. […] A pancreatic cancer cell line was transplanted to immunodeficient mice. Then, gemcitabine administration was started from the point in time when a xenograft reached 100 mm^3. […]
Setting [16] is: pancreatic cancer organoid (with HUVECs and hMSCs).
The mark [17] stands for this setting: two-dimensionally cultured pancreatic cancer cells.

For orientation: IC50 means the concentration that inhibits the measured activity by half. Lower therefore signals greater potency. For `Nc1ccn([C@@H]2O[C@H](CO)[C@@H](O)C2(F)F)c(=O)n1` [gemcitabine], the IC50 was determined as 30 nM in test [1], 700 nM in test [2] and 200 nM in [3]. Further, the tumor regression result in [4] was “tumor regression was found”; in test [5], “tumor regression was found”; in test [6], “no tumor regression was found”. Moreover, the “drug sensitivity (luciferase activity)” value in test [7] (setting [16]) is “lower drug sensitivity”; in [7] (setting [17]), “high sensitivity”; in test [10] (High stroma group (hMSCs and HUVECs with high incidence)), “even lower sensitivity”; in [10] (lung cancer cell aggregate), “high sensitivity”; in [10] (organoid culture groups), “lower drug sensitivity”; in [13] it was “resistance”. The “increase in xenograft volume” value in test [8] (all transplantation groups, e.g. 10 mg/kg once every three days for 30 days, versus non-GEM group) is on record as “suppressed”. The xenograft regression entry is “exhibited no regression and increased in volume” in [8] (organoid with hMSCs in a large number (High hMSC)); “exhibited regression” in [8] (organoids of the other groups). Moreover, the “tumor size after discontinuation of administration” value is “increased markedly” in test [9] (pancreatic cancer organoid transplantation group) and “constant tumor size” in test [9] (suspension transplantation group). For the same compound, the “drug resistance (luminescence intensity)” value in test [11] is on record as “significantly high drug resistance”. Further, the “drug resistance (tumor size)” value in [12] is recorded as “significantly high drug resistance”. Moreover, the “residual cancer stem cells in organoid” value in test [14] was “GFP-positive and Sox9-positive cancer stem cells are confirmed to remain”. Besides, the “ABCG2-expressing pancreatic cancer cells after administration” value in test [15] (cancer organoid transplantation group, administration day 30) was “Pancreatic cancer cells expressing ABCG2 are confirmed to remain”. Also, the “Ki67-positive cells after administration” value in test [15] (organoid-derived xenograft, 1 month after start of administration once every three days) is given as “high incidence of Ki67-positive cells”.

As for `O=c1[nH]cc(F)c(=O)[nH]1` [5-FU], the “drug sensitivity (luciferase activity)” value is listed as “lower drug sensitivity” in test [7] (setting [16]) and “high sensitivity” in [7] (setting [17]).

Values taken from US20170285002A1, “METHOD FOR RECONSTITUTING TUMOR WITH MICROENVIRONMENT” (Public University Corporation Yokohama City University, priority 2016, published 2017).
